Target: Human immunodeficiency virus type 1 integrase (Human immunodeficiency virus 1, UniProt Q7ZJM1)
Test: Inhibition of Human immunodeficiency virus 1 integrase 3'-processing activity expressed in Escherichia coli using 21-mer DNA and Mg2+ after 2 hrs by polyacrylamide gel electrophoresis

Sequence of Human immunodeficiency virus type 1 integrase (Q7ZJM1 whole entry): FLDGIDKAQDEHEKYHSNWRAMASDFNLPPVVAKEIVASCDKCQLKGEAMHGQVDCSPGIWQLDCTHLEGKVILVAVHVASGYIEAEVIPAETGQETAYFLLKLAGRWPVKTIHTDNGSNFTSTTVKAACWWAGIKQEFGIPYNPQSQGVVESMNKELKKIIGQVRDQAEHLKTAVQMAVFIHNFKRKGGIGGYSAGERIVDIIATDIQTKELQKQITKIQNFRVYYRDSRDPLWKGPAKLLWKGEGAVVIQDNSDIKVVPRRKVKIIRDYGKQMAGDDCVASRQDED

Row | Compound | IC50
1 | Cc1cn([C@H]2C[C@H](OP(=O)(O)OC[C@H]3OCC[C@@H]3OP(=O)(O)OC[C@H]3OCC[C@@H]3OP(=O)(O)OC[C@H]3OCC[C@@H]3OP(=O)(O)OC[C@H]3OCC[C@@H]3OP(=O)(O)OC[C@H]3OCC[C@@H]3OP(=O)(O)OC[C@H]3OCC[C@@H]3OP(=O)(O)OC[C@H]3O[C@@H](n4cc(C)c(=O)[nH]c4=O)C[C@@H]3O)[C@@H](COP(=O)(O)O[C@H]3C[C@H](n4cc(C)c(=O)[nH]c4=O)O[C@@H]3COP(=O)(O)O[C@H]3C[C@H](n4cnc5c(=O)[nH]c(N)nc54)O[C@@H]3COP(=O)(O)O[C@H]3C[C@H](n4cnc5c(=O)[nH]c(N)nc54)O[C@@H]3COP(=O)(O)OCCCCCCNC(=O)c3cc(Cl)c(C(=O)O)c(-c4c5cc(Cl)c(=O)c(Cl)c-5oc5c(Cl)c(O)c(Cl)cc45)c3Cl)O2)c(=O)[nH]c1=O | 250 nM
2 | Cc1cn([C@H]2C[C@H](O)[C@@H](COP(=O)(O)OCCCOP(=O)(O)OCCCOP(=O)(O)OCCCOP(=O)(O)OCCCOP(=O)(O)OCCCOP(=O)(O)OCCCOP(=O)(O)OCCCOP(=O)(O)OCCCOP(=O)(O)OCCCOP(=O)(O)OCCCOP(=O)(O)OCCCCCCNC(=O)c3cc(Cl)c(C(=O)O)c(-c4c5cc(Cl)c(=O)c(Cl)c-5oc5c(Cl)c(O)c(Cl)cc45)c3Cl)O2)c(=O)[nH]c1=O | 1300 nM
3 | Cc1cn([C@H]2C[C@H](OP(=O)(O)OC[C@H]3O[C@@H](n4cnc5c(=O)[nH]c(N)nc54)C[C@@H]3OP(=O)(O)OC[C@H]3O[C@@H](n4cc(C)c(=O)[nH]c4=O)C[C@@H]3OP(=O)(O)OC[C@H]3O[C@@H](n4cnc5c(=O)[nH]c(N)nc54)C[C@@H]3OP(=O)(O)OC[C@H]3O[C@@H](n4cc(C)c(=O)[nH]c4=O)C[C@@H]3O)[C@@H](COP(=O)(O)OCCCOP(=O)(O)OCCCOP(=O)(O)OCCCOP(=O)(O)OCCCOP(=O)(O)OCCCOP(=O)(O)OCCCOP(=O)(O)OCCCCCCNC(=O)c3cc(Cl)c(C(=O)O)c(-c4c5cc(Cl)c(=O)c(Cl)c-5oc5c(Cl)c(O)c(Cl)cc45)c3Cl)O2)c(=O)[nH]c1=O | 250 nM
4 | Cc1cn([C@H]2C[C@H](OP(=O)(O)OCCCOP(=O)(O)OCCCOP(=O)(O)OCCCOP(=O)(O)OCCCOP(=O)(O)OCCCOP(=O)(O)OCCCOP(=O)(O)OC[C@H]3O[C@@H](n4cc(C)c(=O)[nH]c4=O)C[C@@H]3O)[C@@H](COP(=O)(O)O[C@H]3C[C@H](n4cc(C)c(=O)[nH]c4=O)O[C@@H]3COP(=O)(O)O[C@H]3C[C@H](n4cnc5c(=O)[nH]c(N)nc54)O[C@@H]3COP(=O)(O)O[C@H]3C[C@H](n4cnc5c(=O)[nH]c(N)nc54)O[C@@H]3COP(=O)(O)OCCCCCCNC(=O)c3cc(Cl)c(C(=O)O)c(-c4c5cc(Cl)c(=O)c(Cl)c-5oc5c(Cl)c(O)c(Cl)cc45)c3Cl)O2)c(=O)[nH]c1=O | 310 nM

Stronger by IC50, values ahead:

Row | IC50 | Compound
5 | 48 nM | CO[C@@H]1[C@H](OP(=O)(O)OC[C@H]2O[C@@H](n3ccc(=O)[nH]c3=O)[C@H](OC)[C@@H]2OP(=O)(O)OC[C@H]2O[C@@H](n3ccc(=O)[nH]c3=O)[C@H](OC)[C@@H]2OP(=O)(O)OC[C@H]2O[C@@H](n3cnc4c(=O)[nH]c(N)nc43)[C@H](OC)[C@@H]2OP(=O)(O)OC[C@H]2O[C@@H](n3ccc(=O)[nH]c3=O)[C@H](OC)[C@@H]2OP(=O)(O)OC[C@H]2O[C@@H](n3cnc4c(=O)[nH]c(N)nc43)[C@H](OC)[C@@H]2OP(=O)(O)OC[C@H]2O[C@@H](n3ccc(=O)[nH]c3=O)[C@H](OC)[C@@H]2OP(=O)(O)OCCCCCCNC(=S)Nc2ccc(-c3c4cc(Br)c(=O)c(Br)c-4oc4c(Br)c(O)c(Br)cc34)c(C(=O)O)c2)[C@@H](COP(=O)(O)O[C@H]2[C@@H](OC)[C@H](n3ccc(=O)[nH]c3=O)O[C@@H]2COP(=O)(O)O[C@H]2[C@@H](OC)[C@H](n3ccc(=O)[nH]c3=O)O[C@@H]2COP(=O)(O)O[C@H]2[C@@H](OC)[C@H](n3cnc4c(=O)[nH]c(N)nc43)O[C@@H]2COP(=O)(O)O[C@H]2[C@@H](OC)[C@H](n3cnc4c(=O)[nH]c(N)nc43)O[C@@H]2CO)O[C@H]1n1ccc(=O)[nH]c1=O
6 | 52 nM | CO[C@@H]1[C@H](O)[C@@H](COP(=O)(O)O[C@H]2[C@@H](OC)[C@H](n3cnc4c(=O)[nH]c(N)nc43)O[C@@H]2COP(=O)(O)O[C@H]2[C@@H](OC)[C@H](n3ccc(=O)[nH]c3=O)O[C@@H]2COP(=O)(O)O[C@H]2[C@@H](OC)[C@H](n3cnc4c(=O)[nH]c(N)nc43)O[C@@H]2COP(=O)(O)O[C@H]2[C@@H](OC)[C@H](n3ccc(=O)[nH]c3=O)O[C@@H]2COP(=O)(O)O[C@H]2[C@@H](OC)[C@H](n3ccc(=O)[nH]c3=O)O[C@@H]2COP(=O)(O)O[C@H]2[C@@H](OC)[C@H](n3ccc(=O)[nH]c3=O)O[C@@H]2COP(=O)(O)O[C@H]2[C@@H](OC)[C@H](n3ccc(=O)[nH]c3=O)O[C@@H]2COP(=O)(O)O[C@H]2[C@@H](OC)[C@H](n3ccc(=O)[nH]c3=O)O[C@@H]2COP(=O)(O)O[C@H]2[C@@H](OC)[C@H](n3cnc4c(=O)[nH]c(N)nc43)O[C@@H]2COP(=O)(O)O[C@H]2[C@@H](OC)[C@H](n3cnc4c(=O)[nH]c(N)nc43)O[C@@H]2COP(=O)(O)OCCCCCCNC(=O)c2cc(Cl)c(C(=O)O)c(-c3c4cc(Cl)c(=O)c(Cl)c-4oc4c(Cl)c(O)c(Cl)cc34)c2Cl)O[C@H]1n1ccc(=O)[nH]c1=O
7 | 19 nM | CO[C@@H]1[C@H](O)[C@@H](COP(=O)(S)O[C@H]2[C@@H](OC)[C@H](n3cnc4c(=O)[nH]c(N)nc43)O[C@@H]2COP(=O)(S)O[C@H]2[C@@H](OC)[C@H](n3ccc(=O)[nH]c3=O)O[C@@H]2COP(=O)(S)O[C@H]2[C@@H](OC)[C@H](n3cnc4c(=O)[nH]c(N)nc43)O[C@@H]2COP(=O)(S)O[C@H]2[C@@H](OC)[C@H](n3ccc(=O)[nH]c3=O)O[C@@H]2COP(=O)(S)O[C@H]2[C@@H](OC)[C@H](n3ccc(=O)[nH]c3=O)O[C@@H]2COP(=O)(S)O[C@H]2[C@@H](OC)[C@H](n3ccc(=O)[nH]c3=O)O[C@@H]2COP(=O)(S)O[C@H]2[C@@H](OC)[C@H](n3ccc(=O)[nH]c3=O)O[C@@H]2COP(=O)(S)O[C@H]2[C@@H](OC)[C@H](n3ccc(=O)[nH]c3=O)O[C@@H]2COP(=O)(S)O[C@H]2[C@@H](OC)[C@H](n3cnc4c(=O)[nH]c(N)nc43)O[C@@H]2COP(=O)(S)O[C@H]2[C@@H](OC)[C@H](n3cnc4c(=O)[nH]c(N)nc43)O[C@@H]2COP(=O)(S)OCCCCCCNC(=O)c2cc(Cl)c(C(=O)O)c(-c3c4cc(Cl)c(=O)c(Cl)c-4oc4c(Cl)c(O)c(Cl)cc34)c2Cl)O[C@H]1n1ccc(=O)[nH]c1=O (stereo partly drawn)
8 | 20 nM | CCCCCCCC/C=C\CCCCCCCC(=O)NCCCOCC(O)COP(=O)(S)O[C@H]1[C@@H](OC)[C@H](n2ccc(=O)[nH]c2=O)O[C@@H]1COP(=O)(S)O[C@H]1[C@@H](OC)[C@H](n2cnc3c(=O)[nH]c(N)nc32)O[C@@H]1COP(=O)(S)O[C@H]1[C@@H](OC)[C@H](n2ccc(=O)[nH]c2=O)O[C@@H]1COP(=O)(S)O[C@H]1[C@@H](OC)[C@H](n2cnc3c(=O)[nH]c(N)nc32)O[C@@H]1COP(=O)(S)O[C@H]1[C@@H](OC)[C@H](n2ccc(=O)[nH]c2=O)O[C@@H]1COP(=O)(S)O[C@H]1[C@@H](OC)[C@H](n2ccc(=O)[nH]c2=O)O[C@@H]1COP(=O)(S)O[C@H]1[C@@H](OC)[C@H](n2ccc(=O)[nH]c2=O)O[C@@H]1COP(=O)(S)O[C@H]1[C@@H](OC)[C@H](n2ccc(=O)[nH]c2=O)O[C@@H]1COP(=O)(S)O[C@H]1[C@@H](OC)[C@H](n2ccc(=O)[nH]c2=O)O[C@@H]1COP(=O)(S)O[C@H]1[C@@H](OC)[C@H](n2cnc3c(=O)[nH]c(N)nc32)O[C@@H]1COP(=O)(S)O[C@H]1[C@@H](OC)[C@H](n2cnc3c(=O)[nH]c(N)nc32)O[C@@H]1COP(=O)(S)OCCCCCCNC(=O)c1cc(Cl)c(C(=O)O)c(-c2c3cc(Cl)c(=O)c(Cl)c-3oc3c(Cl)c(O)c(Cl)cc23)c1Cl (stereo partly drawn)

— ChEMBL document CHEMBL2010748, “Structure-Activity Relationship Studies of HIV-1 Integrase Oligonucleotide Inhibitors” (ACS Med Chem Lett, 2011)
